# Test results published in ChEMBL document CHEMBL6121021, “Design and Synthesis of Topoisomerases-Histone Deacetylase Dual Targeted Quinoline-Bridged Hydroxamates as Anticancer Agents” (J Med Chem, 2025).
# pIC50: −log10 of the molar value. Active and inactive are the calls of the source. The rule behind the calls is not given here.
# Columns and labels:
# Histone deacetylase 8 = molecular target: T1, Histone deacetylase 8 (Homo sapiens, UniProt Q9BY41); assay: Inhibition of HDAC8 (unknown origin) by fluorometric assay
# T1 sequence (Q9BY41 whole entry): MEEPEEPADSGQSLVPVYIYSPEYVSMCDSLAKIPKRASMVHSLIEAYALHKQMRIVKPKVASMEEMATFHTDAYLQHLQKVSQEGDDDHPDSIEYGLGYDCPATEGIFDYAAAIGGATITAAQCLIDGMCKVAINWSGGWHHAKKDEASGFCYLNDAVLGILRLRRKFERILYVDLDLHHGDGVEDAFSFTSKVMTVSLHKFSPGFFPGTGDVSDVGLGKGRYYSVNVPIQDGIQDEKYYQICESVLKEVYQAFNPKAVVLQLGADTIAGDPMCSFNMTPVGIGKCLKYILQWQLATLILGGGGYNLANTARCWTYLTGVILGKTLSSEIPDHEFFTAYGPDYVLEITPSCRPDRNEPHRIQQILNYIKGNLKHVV
# A549 [1] = assay: Induction of ROS generation in human A549 cells incubated for 48 hrs by DCFH-DA staining based analysis; assay type: functional, cell-based
# A549 [2] = assay: Effect on mitochondrial membrane permeability in human A549 cells assessed as decrease in red to green fluorescence ratio at sub-IC50 incubated for 48 hrs by JC-1 staining based analysis; assay type: functional, cell-based
# HT-29 = assay: cells; assay type: functional, cell-based; details: Homo sapiens, HT-29, 48 h
# MDA-MB-231 = assay: cells; assay type: functional, cell-based; details: Homo sapiens, MDA-MB-231, 48 h
# [3] = molecular target: T2, Protein deacetylase HDAC6 (Homo sapiens, UniProt Q9UBN7); assay: Inhibition of HDAC6 (unknown origin) using acetylated-peptide substrate by fluorometric assay
# T2 sequence (Q9UBN7 whole entry): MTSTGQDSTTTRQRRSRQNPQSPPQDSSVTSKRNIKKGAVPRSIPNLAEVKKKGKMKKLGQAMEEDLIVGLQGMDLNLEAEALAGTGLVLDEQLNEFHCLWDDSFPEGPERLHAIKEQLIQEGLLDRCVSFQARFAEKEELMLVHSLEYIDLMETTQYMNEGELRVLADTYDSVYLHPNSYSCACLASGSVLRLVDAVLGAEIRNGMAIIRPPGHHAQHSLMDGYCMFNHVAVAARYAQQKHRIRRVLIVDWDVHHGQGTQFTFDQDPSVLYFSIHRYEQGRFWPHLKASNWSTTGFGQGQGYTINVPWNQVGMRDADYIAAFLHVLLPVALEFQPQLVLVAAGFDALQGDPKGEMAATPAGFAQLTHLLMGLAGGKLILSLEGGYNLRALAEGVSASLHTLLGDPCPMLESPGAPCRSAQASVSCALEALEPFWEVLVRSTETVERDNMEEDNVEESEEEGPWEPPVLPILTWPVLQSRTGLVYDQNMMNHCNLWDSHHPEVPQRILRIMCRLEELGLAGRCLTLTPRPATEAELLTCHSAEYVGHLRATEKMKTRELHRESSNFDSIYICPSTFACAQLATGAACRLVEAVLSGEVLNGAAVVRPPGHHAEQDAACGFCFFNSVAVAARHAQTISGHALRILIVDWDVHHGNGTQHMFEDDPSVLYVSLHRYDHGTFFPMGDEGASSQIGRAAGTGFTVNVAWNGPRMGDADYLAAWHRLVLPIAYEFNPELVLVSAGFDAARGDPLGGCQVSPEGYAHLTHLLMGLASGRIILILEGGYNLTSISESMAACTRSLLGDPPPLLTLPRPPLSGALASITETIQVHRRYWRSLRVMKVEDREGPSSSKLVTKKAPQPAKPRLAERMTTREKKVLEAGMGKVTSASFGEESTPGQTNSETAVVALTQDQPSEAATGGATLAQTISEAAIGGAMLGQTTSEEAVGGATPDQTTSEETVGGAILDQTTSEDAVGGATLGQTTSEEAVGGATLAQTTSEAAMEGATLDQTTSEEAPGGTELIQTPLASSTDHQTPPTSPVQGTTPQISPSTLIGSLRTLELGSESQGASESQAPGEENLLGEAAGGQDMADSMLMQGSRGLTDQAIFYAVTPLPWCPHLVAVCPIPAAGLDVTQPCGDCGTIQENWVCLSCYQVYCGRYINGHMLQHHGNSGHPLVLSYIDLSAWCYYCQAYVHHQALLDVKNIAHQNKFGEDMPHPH
# [4] = molecular target: T3, DNA topoisomerase 1 (Homo sapiens) (UniProt P11387); assay: Inhibition of human Topo I-mediated relaxation of supercoiled DNA preincubated for 30 mins followed by proteinase K addition measured after 30 mins by gel electrophoresis; details: time 60.0 min
# T3 sequence (whole entry): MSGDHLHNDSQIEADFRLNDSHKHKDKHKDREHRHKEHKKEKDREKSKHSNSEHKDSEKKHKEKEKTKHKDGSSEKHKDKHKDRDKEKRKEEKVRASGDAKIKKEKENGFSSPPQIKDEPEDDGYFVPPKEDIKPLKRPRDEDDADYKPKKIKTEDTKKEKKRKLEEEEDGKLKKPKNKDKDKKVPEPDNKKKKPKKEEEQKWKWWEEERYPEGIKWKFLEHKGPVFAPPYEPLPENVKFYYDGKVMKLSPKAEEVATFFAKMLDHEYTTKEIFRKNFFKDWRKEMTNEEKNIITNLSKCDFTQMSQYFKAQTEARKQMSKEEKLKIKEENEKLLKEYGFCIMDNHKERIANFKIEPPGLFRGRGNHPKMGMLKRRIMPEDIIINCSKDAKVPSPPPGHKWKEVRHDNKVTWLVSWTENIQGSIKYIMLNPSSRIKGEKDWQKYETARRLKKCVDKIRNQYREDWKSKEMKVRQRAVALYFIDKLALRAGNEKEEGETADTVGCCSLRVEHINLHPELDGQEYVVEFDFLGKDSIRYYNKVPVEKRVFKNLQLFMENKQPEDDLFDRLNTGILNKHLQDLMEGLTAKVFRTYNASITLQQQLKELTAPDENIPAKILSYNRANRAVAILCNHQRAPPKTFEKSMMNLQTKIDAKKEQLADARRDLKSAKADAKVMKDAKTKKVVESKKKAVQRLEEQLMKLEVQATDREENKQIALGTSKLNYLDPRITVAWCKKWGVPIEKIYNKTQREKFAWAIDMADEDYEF
# [5] = molecular target: DNA topoisomerase 2-alpha (Homo sapiens, UniProt P11388); assay: Inhibition of human Topo II-alpha-mediated decatenation of kDNA at 100 uM incubated for 30 mins
# DNA topoisomerase 2-alpha, sequence (P11388 whole entry): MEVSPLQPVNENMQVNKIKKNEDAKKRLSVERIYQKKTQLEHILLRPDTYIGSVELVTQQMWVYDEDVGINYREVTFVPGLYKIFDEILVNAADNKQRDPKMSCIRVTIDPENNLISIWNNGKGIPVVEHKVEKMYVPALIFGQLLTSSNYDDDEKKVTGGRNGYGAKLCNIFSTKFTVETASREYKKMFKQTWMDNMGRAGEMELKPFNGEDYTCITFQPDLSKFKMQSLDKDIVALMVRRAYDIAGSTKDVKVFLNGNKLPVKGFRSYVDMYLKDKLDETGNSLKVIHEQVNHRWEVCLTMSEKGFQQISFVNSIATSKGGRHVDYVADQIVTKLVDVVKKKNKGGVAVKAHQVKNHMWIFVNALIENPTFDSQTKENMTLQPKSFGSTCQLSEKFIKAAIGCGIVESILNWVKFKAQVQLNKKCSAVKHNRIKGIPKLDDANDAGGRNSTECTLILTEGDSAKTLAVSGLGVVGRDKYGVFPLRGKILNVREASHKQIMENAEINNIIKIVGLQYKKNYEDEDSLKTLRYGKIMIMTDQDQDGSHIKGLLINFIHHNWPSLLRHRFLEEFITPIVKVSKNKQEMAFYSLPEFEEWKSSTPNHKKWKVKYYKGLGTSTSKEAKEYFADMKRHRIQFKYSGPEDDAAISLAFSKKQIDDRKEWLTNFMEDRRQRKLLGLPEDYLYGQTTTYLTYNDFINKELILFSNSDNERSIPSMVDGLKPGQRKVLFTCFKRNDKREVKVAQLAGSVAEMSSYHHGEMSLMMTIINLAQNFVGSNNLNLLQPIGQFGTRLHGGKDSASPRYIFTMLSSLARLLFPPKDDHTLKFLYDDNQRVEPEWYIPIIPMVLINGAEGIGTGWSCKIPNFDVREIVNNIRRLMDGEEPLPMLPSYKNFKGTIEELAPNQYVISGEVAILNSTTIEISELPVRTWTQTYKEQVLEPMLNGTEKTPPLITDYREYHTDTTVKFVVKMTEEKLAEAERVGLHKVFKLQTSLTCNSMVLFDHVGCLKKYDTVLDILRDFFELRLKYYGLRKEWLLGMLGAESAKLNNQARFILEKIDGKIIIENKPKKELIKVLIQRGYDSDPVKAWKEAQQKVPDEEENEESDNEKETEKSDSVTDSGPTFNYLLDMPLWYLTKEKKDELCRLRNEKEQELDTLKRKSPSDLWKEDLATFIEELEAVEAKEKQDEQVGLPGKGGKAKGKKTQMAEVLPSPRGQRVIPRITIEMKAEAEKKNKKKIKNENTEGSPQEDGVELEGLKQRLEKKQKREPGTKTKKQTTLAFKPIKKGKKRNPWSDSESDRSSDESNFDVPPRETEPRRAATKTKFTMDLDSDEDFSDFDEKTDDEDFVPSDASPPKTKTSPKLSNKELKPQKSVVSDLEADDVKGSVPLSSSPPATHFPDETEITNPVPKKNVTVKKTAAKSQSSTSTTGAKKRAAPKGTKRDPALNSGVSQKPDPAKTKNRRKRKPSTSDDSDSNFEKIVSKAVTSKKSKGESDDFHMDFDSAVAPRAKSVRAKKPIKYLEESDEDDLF
# A549 [6] = assay: Anti-cancer activity against human A549 3D cell culture model at sub- IC50 incubated for 17 days with replacement of medium containing compound on every third day; assay type: functional, cell-based; details: time 17.0 day
# Histone deacetylase 1 = Histone deacetylase 1 (Homo sapiens, UniProt Q13547); assay: Inhibition of HDAC1 extracted from human A549 nucleus incubated for 1 hr by fluorometric assay; assay type: cell-free
# Histone deacetylase 1, sequence (Q13547 whole entry): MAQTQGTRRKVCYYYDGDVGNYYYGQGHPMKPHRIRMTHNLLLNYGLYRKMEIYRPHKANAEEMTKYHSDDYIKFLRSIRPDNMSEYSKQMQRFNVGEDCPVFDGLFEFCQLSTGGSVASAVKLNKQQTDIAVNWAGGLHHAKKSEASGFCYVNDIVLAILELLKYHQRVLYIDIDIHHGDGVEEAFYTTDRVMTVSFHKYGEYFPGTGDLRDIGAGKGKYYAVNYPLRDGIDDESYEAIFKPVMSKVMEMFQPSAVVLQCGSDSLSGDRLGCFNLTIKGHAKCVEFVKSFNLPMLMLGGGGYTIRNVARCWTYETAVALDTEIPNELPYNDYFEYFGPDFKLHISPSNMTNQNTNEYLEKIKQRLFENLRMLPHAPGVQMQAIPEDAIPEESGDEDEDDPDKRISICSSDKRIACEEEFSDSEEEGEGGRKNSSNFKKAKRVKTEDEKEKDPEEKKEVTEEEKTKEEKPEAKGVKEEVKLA
# Supercoiled DNA = assay: Binding affinity to supercoiled DNA (unknown origin) assessed as DNA intercalation measured after 30 mins by gel electrophoresis; assay type: nucleic-acid assay
# A549 [7] = assay: cells; details: Homo sapiens, A549, 48 h
SMILES,pIC50 (Histone deacetylase 8),Activity (A549 [1]),Activity (A549 [2]),pIC50 (HT-29),pIC50 (MDA-MB-231),pIC50 [3],inhibition [4],inhibition [5],Activity (A549 [6]),pIC50 (Histone deacetylase 1),Activity (Supercoiled DNA),pIC50 (A549 [7])
COc1ccc(-c2ccc3cc(OCCCCCC(=O)NO)ccc3n2)cc1,< 6.30,Active,Active; Result Signifies That Cell Death Induced Via Mitochondrial-Dependent Pathways,5.24,6.06,7.64,Active,Active; Observed As More Active Than Etoposide,Active; Exhibited Commendable Decrease In Mass Of 3D Sphere,7.92,inactive,6.15
COc1ccc(-c2ccc3ccc(OCCCCCCC(=O)NO)cc3n2)cc1I,< 6.30,Active,Not active; Result Signifies That Cell Death Induced Via Mitochondrial-Independent Pathways,5.73,5.81,6.86,Active,Active; Observed As More Active Than Etoposide,Active; Exhibited Potent Effect,7.44,inactive,5.71
